Results taken from patent US9018171B2, “Uses of an immunomodulatory protein (GMI) from Ganoderma microsporum” (Mycomagic Biotechnology Co., Ltd., priority 2010, dated 2015).

Columns and labels:
EGFR = assay: Western blotting, EGF-induced phosphorylation; format: cell-based, human; conditions: A549 cells, pretreated 8 h, EGF 10 minutes
Experimental: A549 cells (5×10^5 cells/60 mm) were pretreated with various concentrations of GMI (4, 16 μg/ml) or AG1478 (EGFR inhibitors) for 8 hours prior to incubation for 10 minutes with EGF (as indicated). Cell lysates were subject to immunoblotting with phospho-specific EGFR (Y1068) (A and B), anti-phospho-AKT (A), anti-AKT (A), anti-phospho-GSK3β (A) or anti-phospho-STAT3 antibodies (B). Protein loading was determined by Western blotting against β-actin (A and B).
Total cell lysates were prepared in RIPA buffer (100 μl in 60 mm in dish). Fifty μg of lysate were loaded onto an 8% polyacrylamide gel and analyzed by SDS gel electrophoresis. After transfer to PVDF (Amersham), blots were blocked with 5% skim milk in TBS (10 mM Tris-CL pH7.5, 150 mM NaCl) containing 0.2% Tween-20. Blots were probed with antibodies (at their recommended dilutions) in 5% skim milk in TBS overnight at 4° C. Following detection with the appropriate horseradish-peroxidase conjugated secondary antibody (Cell Signaling), blots were developed by enhanced chemiluminescence according to the manufacturer's directions (Perkin Elmer Life Sciences). All experiments were performed in duplicate.
To assess whether GMI mediates and/or inhibits phosphorylation of Akt and Stat3, the invention investigated the effect of GMI on the phosphorylation status of Akt and Stat3 in A549 cells treated with various concentrations of GMI for 8 h.

A549/D16 = assay: MTT assay, drug sensitivity; format: cell-based, human; conditions: for value in parentheses after IC50 (ratio to parental A549): A549/D16; for IC50: Homo sapiens, A549/D16, 48 h, MTT
Experimental: (§1) A549 cell line and resistant A549 cell sublines (A549/D16, A549/D32 and A549/V16) (5000 cells/well of 96-well plate) were treated with increased doses concentrations (μM) of GMI from Ganoderma microsporum, docetaxel, vincristine and doxorubicin for 48 h, respectively. Cell viability was measured by MTT assay and the results are presented as the calculated cell growth inhibitory ratio. Experiments were repeated three times.

A549/D32 = assay: MTT assay, drug sensitivity; format: cell-based, human; conditions: for value in parentheses after IC50 (ratio to parental A549): A549/D32; for IC50: Homo sapiens, A549/D32, 48 h, MTT
Experimental: as §1

A549/V16 = assay: MTT assay, drug sensitivity; format: cell-based, human; conditions: for value in parentheses after IC50 (ratio to parental A549): A549/V16; for IC50: Homo sapiens, A549/V16, 48 h, MTT
Experimental: as §1

A549 = assay: MTT assay, drug sensitivity; format: cell-based, human; conditions: for IC50: Homo sapiens, A549, 48 h, MTT
Experimental: as §1

CaLu-1 cells = assay: MTT assay, cisplatin and GMI co-treatment; format: cell-based; conditions: CaLu-1, 48 h, read-out: cisplatin alone concentration needed to achieve about 50% cell viability
Experimental: CaLu-1 cells were co-treated with various concentrations of cisplatin (0, 2.5, 5, 10, 20 μM) and GMI from Ganoderma microsporum (0, 4, 8 and 16 μg/mL) for 48 h followed by MTT assay to estimate cell viability.
MTT assay was used to determine the effect of GMI and cisplatin on the proliferation of Calu-1 cells. In metabolically active cells, MTT (Thiazolyl Blue Tetrazolium Bromide) (Sigma) was reduced by dehydrogenase enzyme into an formazan product. Absorbance was measured directly at 570 nm from 96-well assay plates after adding 100 μl DMSO. The quantity of formazan was considered to be directly proportional to the number of viable cells in the culture.
Briefly, the cells (5×10^3) were incubated on 96-well plates containing 200 μl of growth medium. After 24 h incubation, the medium was carefully removed and 100 μl of fresh medium containing various concentrations of GMI and cisplatin were added to the wells. The cells were treated with GMI and cisplatin continuously for 48 h with 0, 4, 8, 16 μg/ml for GMI and with 0, 2.5, 5 and 10 μM for cisplatin. […] The absorbance was analyzed on a VERSAmax microplate reader at 570 nm. Absorbance values were presented as the mean±SE of 3 replicates for each treatment. […] Absorbance of untreated cells was considered 100%. […]

| SMILES | EGF-induced activation (phosphorylation) of EGFR (EGFR) | value in parentheses after IC50 (ratio to parental A549) (A549/D16) | IC50 (A549/D16) | value in parentheses after IC50 (ratio to parental A549) (A549/D32) | IC50 (A549/D32) | value in parentheses after IC50 (ratio to parental A549) (A549/V16) | IC50 (A549/V16) | value in parentheses after IC50 (ratio to parental A549) (A549) | IC50 (A549) | IC50 (CaLu-1 cells) |
| --- | --- | --- | --- | --- | --- | --- | --- | --- | --- | --- |
| COc1cc2ncnc(Nc3cccc(Cl)c3)c2cc1OC [AG1478, reference compound] | able to inhibit EGFR phosphorylation | – | – | – | – | – | – | – | – | – |
| CC(=O)O[C@@]12CO[C@@H]1C[C@H](O)[C@@]1(C)C(=O)[C@H](O)C3=C(C)[C@@H](OC(=O)[C@H](O)[C@@H](NC(=O)OC(C)(C)C)c4ccccc4)C[C@@](O)([C@@H](OC(=O)c4ccccc4)[C@H]21)C3(C)C [Docetaxel] | – | 114.1 | 730 ± 56.6 nM | 318.0 | 2040 ± 955 nM | 121.9 | 780 ± 51.3 nM | 1.0 | 6.4 ± 0.1 nM | – |
| COc1cccc2c1C(=O)c1c(O)c3c(c(O)c1C2=O)C[C@@](O)(C(=O)CO)C[C@@H]3O[C@H]1C[C@H](N)[C@H](O)[C@H](C)O1 [Doxorubicin] | – | 15.4 | 3420 ± 152 nM | 34.6 | 7690 ± 148 nM | 6.9 | 1530 ± 80.8 nM | 1.0 | 223 ± 23.2 nM | – |
| CC[C@]1(O)C[C@H]2CN(CCc3c([nH]c4ccccc34)[C@@](C(=O)OC)(c3cc4c(cc3OC)N(C=O)[C@H]3[C@@](O)(C(=O)OC)[C@H](OC(C)=O)[C@]5(CC)C=CCN6CC[C@]43[C@@H]65)C2)C1 [Vincristine] | – | 51.9 | 770 ± 56.6 nM | 49.2 | 730 ± 28.3 nM | 51.2 | 760 ± 92.4 nM | 1.0 | 14.9 ± 0.1 nM | – |
| N.N.[Cl][Pt][Cl] [cisplatin] | – | – | – | – | – | – | – | – | – | ~10000 nM |
